SMILES strings stand for the structures.

The text below walks through data of patent US20170334899A1, “AMINO-SUBSTITUTED ISOTHIAZOLES” (Bayer Pharma Aktiengesellschaft, priority 2014, published 2017).

The target of the assay is T1, human kinase Mps-1 (Homo sapiens, UniProt P33981).
T1 construct: N-terminally GST-tagged human full length recombinant Mps-1 kinase; GST (N); purchased Invitrogen, Karslruhe, Germany PV4071
T1 sequence (P33981 1-857): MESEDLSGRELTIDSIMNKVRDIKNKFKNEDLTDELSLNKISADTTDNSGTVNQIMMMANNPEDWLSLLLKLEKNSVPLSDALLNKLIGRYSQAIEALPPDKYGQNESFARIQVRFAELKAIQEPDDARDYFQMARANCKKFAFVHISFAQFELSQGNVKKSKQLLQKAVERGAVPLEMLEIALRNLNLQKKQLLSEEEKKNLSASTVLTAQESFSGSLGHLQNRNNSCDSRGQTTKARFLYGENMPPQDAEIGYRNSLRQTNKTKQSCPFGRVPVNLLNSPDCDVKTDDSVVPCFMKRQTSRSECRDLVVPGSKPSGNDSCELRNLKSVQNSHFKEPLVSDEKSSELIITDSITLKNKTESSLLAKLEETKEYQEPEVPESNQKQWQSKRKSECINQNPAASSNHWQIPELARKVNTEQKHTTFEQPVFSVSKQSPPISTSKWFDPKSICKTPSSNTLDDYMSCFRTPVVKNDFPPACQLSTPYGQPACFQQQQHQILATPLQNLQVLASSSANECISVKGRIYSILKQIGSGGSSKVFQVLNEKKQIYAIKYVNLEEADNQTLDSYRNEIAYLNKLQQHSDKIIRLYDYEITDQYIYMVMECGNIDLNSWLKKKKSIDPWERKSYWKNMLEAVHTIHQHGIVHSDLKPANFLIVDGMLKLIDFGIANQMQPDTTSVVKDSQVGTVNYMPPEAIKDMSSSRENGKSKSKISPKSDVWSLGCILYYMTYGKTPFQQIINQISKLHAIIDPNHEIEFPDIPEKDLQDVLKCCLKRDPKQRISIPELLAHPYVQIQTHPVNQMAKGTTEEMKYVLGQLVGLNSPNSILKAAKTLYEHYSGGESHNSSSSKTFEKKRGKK
As to the kind of experiment: Mps-1 kinase assay (TR-FRET). The class given is biochemical. The conditions noted are these: Mps-1 TR-FRET kinase assay; avg; read-out: Mps1 avg (IC50 [mol/l]). The gist of the method: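 Inhibition normalised between uninhibited reaction (0%) and enzyme-free wells (100%), using the blank-corrected TR-FRET 665/620 nm ratio after EDTA stop. Reaction: ~0.5 nM GST-Mps-1 full length, 10 μM ATP, 1 μM biotin-peptide, 60 min at 22 °C, after 15 min compound pre-binding, pH 7.7.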
(In general: Time-resolved FRET reads energy transfer from a long-lived donor to a nearby acceptor.)
In the case of `Cc1nsc(Nc2ccc(C#N)cn2)c1C(=O)Nc1ccc(OCCCNC(=O)OC(C)(C)C)nc1` [Example 46, tert-Butyl [3-({5-[({5-[(5-cyanopyridin-2-yl)amino]-3-methyl-1,2-thiazol-4-yl}-carbonyl)amino]pyridin-2-yl}oxy)propyl]carbamate], the IC50 is ≥ 20 µM.

As to `Cc1nsc(Nc2ccc(C#N)cn2)c1C(=O)Nc1ccc(OC[C@H]2CCN(CC(F)(F)F)C2)nc1` [Example 405, 5-[(5-Cyanopyridin-2-yl)amino]-3-methyl-N-(6-{[(35)-1-(2,2,2-trifluoroethyl)pyrrolidin-3-yl]methoxy}pyridin-3-yl)-1,2-thiazole-4-carboxamide], the IC50 was > 20 µM.

For `CC(=O)Nc1ccc(NC(=O)c2c(C)nsc2Nc2ccc(C#N)cn2)cn1` [Example 435, N-(6-Acetamidopyridin-3-yl)-5-[(5-cyanopyridin-2-yl)amino]-3-methyl-1,2-thiazole-4-carboxamide], the IC50 was > 20 µM.

Consider `Cc1nsc(Nc2cnc(C(F)(F)F)cn2)c1C(=O)Nc1ccc(OCCNC(=O)C(F)(F)F)nc1` [Example 425, 3-Methyl-N-(6-{2-[(trifluoroacetyl)amino]ethoxy}pyridin-3-yl)-5-{[5-(trifluoro-methyl)pyrazin-2-yl]amino}-1,2-thiazole-4-carboxamide], for which the IC50 is ≥ 20 µM.

Regarding `Cc1nsc(Nc2cnc(C(F)(F)F)cn2)c1C(=O)Nc1ccc(OC2CCNCC2)c(F)c1` [Example 431, N-[3-Fluoro-4-(piperidin-4-yloxy)phenyl]-3-methyl-5-{[5-(trifluoromethyl)pyrazin-2-yl]amino}-1,2-thiazole-4-carboxamide], the IC50 is > 20 µM.

For the molecule `Cc1nsc(Nc2cnc3ccccc3n2)c1C(=O)Nc1cccc(C(=O)N2CCOCC2)c1` [Example 52, 3-Methyl-N-[3-(morpholin-4-ylcarbonyl)phenyl]-5-(quinoxalin-2-ylamino)-1,2-thiazole-4-carboxamide], the IC50 is 18 µM.

On to `Cc1nsc(Nc2ccc(C#N)cn2)c1C(=O)Nc1ccc(OC2CCCN(CC(F)F)C2)nc1` (stereo not shown) [Example 39, 5-[(5-Cyanopyridin-2-yl)amino]-N-(6-{[1-(2,2-difluoroethyl)piperidin-3-yl]oxy}-pyridin-3-yl)-3-methyl-1,2-thiazole-4-carboxamide], for which the IC50 was ≥ 20 µM.

Turning to `Cc1nsc(Nc2cnc3ccccc3n2)c1C(=O)Nc1cccc(C(=O)NC(C)(C)C)c1` [Example 53, N-[3-(tert-Butylcarbamoyl)-phenyl]-3-methyl-5-(quinoxalin-2-ylamino)-1,2-thiazole-4-carboxamide], the IC50 is ≥ 20 µM.

As to `Cc1nsc(Nc2cc(C#N)ccn2)c1C(=O)Nc1ccc(OCCCNC(=O)OC(C)(C)C)nc1` [Example 43, tert-Butyl [3-({5-[({5-[(4-cyanopyridin-2-yl)amino]-3-methyl-1,2-thiazol-4-yl}-carbonyl)amino]pyridin-2-yl}oxy)propyl]carbamate], the IC50 was ≥ 20 µM.

For `COC(=O)c1cccc(NC(=O)c2c(C)nsc2Nc2cnc3ccccc3n2)c1` [Example 50, Methyl 3-({[3-methyl-5-(quinoxalin-2-ylamino)-1,2-thiazol-4-yl]carbonyl}amino)-benzoate], the IC50 stood at 2.5 µM.

Take `CCN1CCC(Oc2ccc(NC(=O)c3c(C)nsc3Nc3cnc(C(F)(F)F)cn3)cn2)C(F)(F)C1` (stereo not shown) [Example 406, N-{6-[(1-Ethyl-3,3-difluoropiperidin-4-yl)oxy]pyridin-3-yl}-3-methyl-5-{[5-(trifluoromethyl)pyrazin-2-yl]amino}-1,2-thiazole-4-carboxamide]: the IC50 is > 20 µM.

Consider `Cc1nsc(Nc2ccc(C#N)cn2)c1C(=O)Nc1ccc(OC2CCCN(C(=O)OC(C)(C)C)C2)nc1` (stereo not shown) [Example 36, tert-Butyl 3-({5-[({5-[(5-cyanopyridin-2-yl)amino]-3-methyl-1,2-thiazol-4-yl}-carbonyl)amino]pyridin-2-yl}oxy)piperidine-1-carboxylate], for which the IC50 was ≥ 20 µM.

Take `Cc1nsc(Nc2cc(C#N)ccn2)c1C(=O)Nc1ccc(OCCCNCC(F)F)nc1` [Example 45, 5-[(4-Cyanopyridin-2-yl)amino]-N-(6-{3-[(2,2-difluoroethyl)amino]propoxy}pyridin-3-yl)-3-methyl-1,2-thiazole-4-carboxamide]: the IC50 is ≥ 20 µM.

With `Cc1nsc(Nc2cc(C#N)ccn2)c1C(=O)Nc1ccc(OCCCN)nc1` [Example 44, N-[6-(3-Aminopropoxy)pyridin-3-yl]-5-[(4-cyanopyridin-2-yl)amino]-3-methyl-1,2-thiazole-4-carboxamide], the IC50 was ≥ 20 µM.

For `Cc1nsc(Nc2cnccn2)c1C(=O)Nc1ccc(OC2CCCN(C(=O)OC(C)(C)C)C2)nc1` (stereo not shown) [Example 41, tert-Butyl 3-{[5-({[3-methyl-5-(pyrazin-2-ylamino)-1,2-thiazol-4-yl]carbonyl}amino)-pyridin-2-yl]oxy}piperidine-1-carboxylate], the IC50 is ≥ 20 µM.

On to `CCN1CC[C@H](Oc2ccc(NC(=O)c3c(C)nsc3Nc3cnc(C(F)(F)F)cn3)cn2)[C@H](F)C1` [Example 424, N-(6-{[(3R,4S)-1-Ethyl-3-fluoropiperidin-4-yl]oxy}pyridin-3-yl)-3-methyl-5-{[5-(trifluoromethyl)pyrazin-2-yl]amino}-1,2-thiazole-4-carboxamide], for which the IC50 was > 20 µM.
